This assay addresses PKMζ (protein kinase Mzeta) (Homo sapiens, UniProt Q05513). Kind of assay: split-Venus BiFC of KIBRA-PKMζ dimerization in HEK293T cells. It is filed as cell-based.

Chain of PKMζ (protein kinase Mzeta) (Q05513 184-592 limits assumed): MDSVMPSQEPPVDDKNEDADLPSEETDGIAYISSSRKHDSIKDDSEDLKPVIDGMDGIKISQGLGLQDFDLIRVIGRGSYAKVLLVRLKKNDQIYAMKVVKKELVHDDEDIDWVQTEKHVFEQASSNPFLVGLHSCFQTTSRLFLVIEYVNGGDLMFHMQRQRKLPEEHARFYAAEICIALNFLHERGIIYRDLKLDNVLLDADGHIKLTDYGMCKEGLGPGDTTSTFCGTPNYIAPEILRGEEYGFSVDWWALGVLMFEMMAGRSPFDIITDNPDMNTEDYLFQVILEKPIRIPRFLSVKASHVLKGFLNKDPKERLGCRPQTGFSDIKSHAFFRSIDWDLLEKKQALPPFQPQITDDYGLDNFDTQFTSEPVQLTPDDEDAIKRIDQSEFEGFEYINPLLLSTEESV
Chain of PKMζ (protein kinase Mzeta) (Q8IX03 whole entry partner): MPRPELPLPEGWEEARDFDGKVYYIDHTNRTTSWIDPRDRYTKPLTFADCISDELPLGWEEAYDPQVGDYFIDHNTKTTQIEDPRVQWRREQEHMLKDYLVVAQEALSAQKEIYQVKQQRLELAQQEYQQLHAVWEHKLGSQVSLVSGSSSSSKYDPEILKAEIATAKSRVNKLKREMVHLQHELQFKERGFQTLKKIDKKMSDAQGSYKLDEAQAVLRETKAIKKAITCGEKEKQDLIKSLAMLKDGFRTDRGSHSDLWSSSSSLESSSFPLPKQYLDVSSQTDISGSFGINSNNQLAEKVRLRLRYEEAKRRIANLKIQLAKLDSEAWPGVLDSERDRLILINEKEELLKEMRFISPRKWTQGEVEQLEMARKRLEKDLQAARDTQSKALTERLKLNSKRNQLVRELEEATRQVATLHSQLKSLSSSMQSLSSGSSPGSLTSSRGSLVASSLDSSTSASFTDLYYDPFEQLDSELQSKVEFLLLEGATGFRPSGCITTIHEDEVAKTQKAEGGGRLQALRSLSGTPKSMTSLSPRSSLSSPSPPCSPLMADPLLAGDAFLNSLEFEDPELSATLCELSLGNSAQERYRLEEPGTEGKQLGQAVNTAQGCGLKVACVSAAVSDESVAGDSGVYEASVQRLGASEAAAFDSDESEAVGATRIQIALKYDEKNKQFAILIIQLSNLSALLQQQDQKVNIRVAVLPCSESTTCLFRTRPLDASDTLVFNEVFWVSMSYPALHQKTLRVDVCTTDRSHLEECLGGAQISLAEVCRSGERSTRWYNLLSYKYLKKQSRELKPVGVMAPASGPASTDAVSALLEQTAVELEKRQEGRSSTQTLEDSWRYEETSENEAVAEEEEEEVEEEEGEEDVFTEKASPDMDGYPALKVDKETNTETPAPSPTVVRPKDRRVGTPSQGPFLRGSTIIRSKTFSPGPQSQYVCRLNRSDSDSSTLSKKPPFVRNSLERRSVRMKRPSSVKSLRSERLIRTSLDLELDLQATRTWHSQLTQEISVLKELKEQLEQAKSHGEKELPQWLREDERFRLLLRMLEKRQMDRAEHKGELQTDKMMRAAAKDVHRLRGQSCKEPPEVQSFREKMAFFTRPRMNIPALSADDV

For the compound `O=S(=O)(O)c1cc(O)c2c(S(=O)(=O)O)cc(S(=O)(=O)O)cc2c1` [ζ-stat, 1-naphthol-3,6,8-trisulfonic acid], the IC50 (usually the concentration that gives 50% inhibition) is roughly 1000 nM.

Source of the values: publication PMC11204205 (Science Advances, 2024).
